Patent US10077239B2, “Crystalline forms of a hepatitis B antiviral agent” (NOVIRA THERAPEUTICS, INC, priority 2015, dated 2018)
Entries after “also recorded” stand apart in the source; their conditions may differ. Read-outs that look alike come from different tables or passages of the source.

Key:
Format in all cases: physicochemical
[1] = Particle size distribution (Malvern laser diffraction); details: for Particle size D10 after sonication / Particle size D50 after sonication / Particle size D90 after sonication: after ultrasound treatment (40 seconds); for Particle size D10 / Particle size D50 / Particle size D90: without ultrasound treatment
Method: • Equilibrating 20 min at 50% • Set from 50% to 0% • Equilibrating 20 min at 0% RH • Set from 0% to 100% by step of 10% RH (50% RH per hour) • 3 hours at 100% RH • From 100% RH to 0% RH by step of 10% RH (−50% RH per hour) • Equilibrating 20 min at 0% RH • Set from 0% to 50% • Equilibrating 20 min at 50% RH Particle Size Distribution (Malvern) A total of 3 measurements by batch were made to ensure repeatable and reproducible results. • Dispersant: Silicon oil. A good dispersion is observed in this media and Compound (1) is not soluble in silicon oil. • Stirring: 2000 rpm • lens: 300RF • Analysis model: polydisperse • Presentation code: 3OAE • Number of measurement sweeps: 5000 • Density: 1.000 g·cm^3 • With or without stage of ultrasound

[2] = pH solubility profile
[3] = Solubility of the crystalline forms
[4] = Thermal analysis (DSC/TGA/hot stage): decomposition
Method: Thermal Analysis (DSC/TGA/Hot Stage) An accurate amount of compound (mg scale) is set up in 40 μL Al crucible with perforated lids. The heating rate is 20° C./min in a nitrogen gas flow. The heating ranged from 30 to 400° C.

[5] = Hygroscopicity by dynamic vapor sorption (DVS); details: for Hydrophilicity / hygroscopicity rating from DVS / Hysteresis between initial and final state, DVS: 37° C.; for Water (moisture) uptake, DVS: from 0% to 100% RH at 37° C.
Method: DVS The temperature and RH are pre-set according to the initial temperature and RH. Method at 37° C.: • Equilibrating 20 min at 50% • Set from 50% to 0% • Equilibrating 20 min at 0% RH • Set from 0% to 100% by step of 10% RH (50% RH per hour) • 3 hours at 100% RH • From 100% RH to 0% RH by step of 10% RH (−50% RH per hour) • Equilibrating 20 min at 0% RH • Set from 0% to 50% • Equilibrating 20 min at 50% RH Particle Size Distribution (Malvern)

[6] = Stability under simulated storage conditions: XRPD under temperature and relative humidity; details: for XRPD under RH: phase transition: 10% to 80% RH at 25° C.
Method: Stability Under Simulated Storage Conditions: XRPD The stability of crystalline Forms I and XVI was characterized by XRPD under temperature and relative humidity conditions that stimulate potential storage conditions. XRPD XRPD was performed on a PHILIPS PANalytical, X'Pert Pro. diffractometer The experimental conditions are the following: • Configuration Bragg-Brentano: θ−θ • Source: Cu with Kα1 at λ=1.5406 Å. • The power supply works at 45 kV and 40 mA. • Detector: PSD X'Celerator in scanning mode • Sample temperature: room temperature • Angular variation: from 2θ=3° to 45° • Step size [° 2θ]: 0.008 • Scan step time (in s): 13 39 • Duration: 20 min according to the diffraction intensity A few mg of sample were prepared on a silicon plate without any special treatment other than a slight pressure to obtain a flat and homogeneous surface for reproducible and repeatable results.

[7] = as above; details: for XRPD under temperature: phase transition: temperature increased from 25° C. to 160° C.

Row | Particle size D10 after sonication [1] [μm] | Particle size D50 after sonication [1] [μm] | Particle size D90 after sonication [1] [μm] | Particle size D10 [1] [μm] | Particle size D50 [1] [μm] | Particle size D90 [1] [μm] | pH solubility profile [2] | Decomposition (degradation) temperature [4] | Hysteresis between initial and final state, DVS [5] | Water (moisture) uptake, DVS [5] [%] | XRPD under RH: phase transition [6] | XRPD under temperature: phase transition [7] | Compound | Hydrophilicity / hygroscopicity rating from DVS [5] | other results
1 | 4.2 | 20.0 | 37.5 | 9.8 | 23.7 | 45.8 | Slightly soluble | above 300 °C | No hysteresis | 0.8 | No transition phase from 10% | no phase transition | O=C(Nc1cc(F)c(F)c(F)c1)c1ccc(F)c(S(=O)(=O)N2CCC(O)CC2)c1 [Form XVI, 4-fluoro-3-((4-hydroxypiperidin-1-yl)sulfonyl)-N-(3,4,5-trifluorophenyl)benzamide] | slightly hydrophilic; also recorded: low hydrophilicity | Particle size D10 after sonication ([1]; listed as FXVI): D10 = 4.2 μm; Particle size D50 after sonication ([1]; listed as FXVI): D50 = 20.0 μm; Particle size D90 after sonication ([1]; listed as FXVI): D90 = 37.5 μm; Solubility in MTBE ([3]; MTBE, 25° C.): In MTBE <2 g/L at 25 °C; Solubility in water ([3]; water, 25° C.): In Water <2 g/L at 25 °C; Decomposition (degradation) temperature ([4]; listed as FXVI): Decomposition >300 °C; Hydrophilicity / hygroscopicity rating from DVS ([5]; listed as FXVI): 100% ⋄ slightly hydrophilic.; Water (moisture) uptake, DVS ([5]; listed as FXVI): Uptake of 0.8% from 0 to; Impact of relative humidity on the crystalline phase (XRPD) ([6]; RH 7-30-90% at 25 or 45° C.): no impact; Stability of the crystalline form with respect to temperature and relative humidity ([6]; XRPD monitoring at higher temperatures and varying humidity): high stability; also recorded: maintains its crystallinity; also recorded: highly stable; XRPD under temperature: phase transition ([7]; listed as FXVI): No transition phase until
2 | 4.7 | 14.2 | 66.9 | 5.8 | 69.1 | 342.6 | Slightly soluble | above 300 °C | No hysteresis | 1.5 | No transition phase from 10% | sensitive to the temperature | O=C(Nc1cc(F)c(F)c(F)c1)c1ccc(F)c(S(=O)(=O)N2CCC(O)CC2)c1 [Form I, 4-fluoro-3-((4-hydroxypiperidin-1-yl)sulfonyl)-N-(3,4,5-trifluorophenyl)benzamide] | slightly hydrophilic; also recorded: low hydrophilicity | Particle size D10 after sonication ([1]; listed as FI): D10 = 4.7 μm; Particle size D50 after sonication ([1]; listed as FI): D50 = 14.2 μm; Particle size D90 after sonication ([1]; listed as FI): D90 = 66.9 μm; solubility ([3]; organic solvent or mixture, MTBE, 25° C., read-out: Solubility in MTBE): < 2000 µg/mL; solubility ([3]; water, 25° C., read-out: Solubility in water): < 2000 µg/mL; Decomposition (degradation) temperature ([4]; listed as FI): Decomposition >300 °C; Hydrophilicity / hygroscopicity rating from DVS ([5]; listed as FI): 100% ⋄ slightly hydrophilic.; Impact of relative humidity on the crystalline phase (XRPD) ([6]; RH 7-30-90% at 25 or 40° C.): no impact; Temperature from which the phase transition starts (XRPD) ([7]; heating from 25° C. to 160° C.): 100 °C; Temperature at which the phase transition is complete (XRPD) ([7]; heating from 25° C. to 160° C., not reversible): 160 °C; XRPD under temperature: phase transition ([7]; listed as FI): Complete transition towards
3 | – | – | – | – | – | – | – | – | – | – | – | – | O=C(Nc1cc(F)c(F)c(F)c1)c1ccc(F)c(S(=O)(=O)N2CCC(O)CC2)c1 [Compound (1), 4-fluoro-3-((4-hydroxypiperidin-1-yl)sulfonyl)-N-(3,4,5-trifluorophenyl)benzamide] | – | Solubility in silicon oil ([3]; silicon oil, dispersant of the particle size measurement): not soluble
